Assay results published in patent US20100137449A1, “SUBSTITUTED 1,3-CYCLOPENTADIONE MULTI-TARGET PROTEIN KINASE MODULATORS OF CANCER, ANGIOGENESIS AND THE INFLAMMATORY PATHWAYS ASSOCIATED THEREWITH” (METAPROTEOMICS, LLC, priority 2007, published 2010).

Key:
Assay in all cases: KinaseProfiler Assay
SRPK1(h) = SRPK1(h) (Homo sapiens, UniProt Q96SB4)
PKBβ(h) = PKBβ(h) (Homo sapiens, UniProt P31751)
HIPK2(h) = HIPK2(h) (Homo sapiens, UniProt Q9H2X6)
PKA(h) = PKA(h) (Homo sapiens, UniProt P17612)
Pim-1(h) = Pim-1(h) (Homo sapiens, UniProt P11309)
Chain of Pim-1(h) (P11309 whole entry): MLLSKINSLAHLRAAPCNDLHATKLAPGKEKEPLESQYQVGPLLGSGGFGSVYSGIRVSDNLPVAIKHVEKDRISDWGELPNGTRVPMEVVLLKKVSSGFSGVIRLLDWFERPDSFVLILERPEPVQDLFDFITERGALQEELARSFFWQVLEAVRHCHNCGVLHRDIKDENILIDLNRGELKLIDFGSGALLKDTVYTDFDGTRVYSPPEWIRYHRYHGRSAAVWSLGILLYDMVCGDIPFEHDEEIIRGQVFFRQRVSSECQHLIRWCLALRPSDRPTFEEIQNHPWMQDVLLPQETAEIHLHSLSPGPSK

EphA2(h) = EphA2(h) (Homo sapiens, UniProt P29317)
Chain of EphA2(h) (P29317 24-976): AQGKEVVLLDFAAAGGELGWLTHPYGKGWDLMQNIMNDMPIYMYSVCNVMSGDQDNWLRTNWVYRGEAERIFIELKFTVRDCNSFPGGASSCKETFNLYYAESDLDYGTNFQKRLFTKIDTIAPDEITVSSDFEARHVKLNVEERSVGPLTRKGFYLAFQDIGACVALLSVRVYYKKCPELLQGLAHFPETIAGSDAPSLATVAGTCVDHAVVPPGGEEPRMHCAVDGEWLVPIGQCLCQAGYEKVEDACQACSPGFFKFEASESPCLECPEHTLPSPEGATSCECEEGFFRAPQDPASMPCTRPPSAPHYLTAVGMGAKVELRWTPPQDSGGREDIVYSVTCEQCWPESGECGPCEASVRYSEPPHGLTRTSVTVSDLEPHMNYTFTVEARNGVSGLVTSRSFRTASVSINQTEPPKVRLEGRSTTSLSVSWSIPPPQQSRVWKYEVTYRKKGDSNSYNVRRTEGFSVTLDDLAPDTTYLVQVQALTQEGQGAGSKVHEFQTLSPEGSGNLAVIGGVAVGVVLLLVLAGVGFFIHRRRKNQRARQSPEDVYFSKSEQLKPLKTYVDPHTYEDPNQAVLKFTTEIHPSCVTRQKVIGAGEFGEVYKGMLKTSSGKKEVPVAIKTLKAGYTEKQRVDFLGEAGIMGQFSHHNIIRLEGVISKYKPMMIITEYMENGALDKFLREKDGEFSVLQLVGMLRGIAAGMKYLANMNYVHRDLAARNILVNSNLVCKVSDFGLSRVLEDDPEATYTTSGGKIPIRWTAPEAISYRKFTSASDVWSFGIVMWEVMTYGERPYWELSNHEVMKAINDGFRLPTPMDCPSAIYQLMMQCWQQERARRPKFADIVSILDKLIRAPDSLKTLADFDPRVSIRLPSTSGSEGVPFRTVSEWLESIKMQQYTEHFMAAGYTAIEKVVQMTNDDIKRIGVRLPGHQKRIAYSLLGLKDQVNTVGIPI

Blk(m) = Blk(m) (Mus musculus, UniProt P16277)
Chain of Blk(m) (P16277 whole entry): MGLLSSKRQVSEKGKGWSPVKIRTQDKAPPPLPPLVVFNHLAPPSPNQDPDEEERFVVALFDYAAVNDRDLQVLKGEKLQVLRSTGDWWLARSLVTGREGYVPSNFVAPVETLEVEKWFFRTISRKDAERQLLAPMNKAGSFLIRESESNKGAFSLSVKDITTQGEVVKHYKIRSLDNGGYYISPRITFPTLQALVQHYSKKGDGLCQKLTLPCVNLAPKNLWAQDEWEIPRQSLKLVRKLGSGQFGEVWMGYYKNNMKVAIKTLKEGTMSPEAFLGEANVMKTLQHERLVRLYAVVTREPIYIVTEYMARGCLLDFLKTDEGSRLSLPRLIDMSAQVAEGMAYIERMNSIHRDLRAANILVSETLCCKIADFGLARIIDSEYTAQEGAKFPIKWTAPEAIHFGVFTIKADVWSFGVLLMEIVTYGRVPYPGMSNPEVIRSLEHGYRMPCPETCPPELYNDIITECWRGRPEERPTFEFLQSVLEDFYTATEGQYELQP

Ret(V804M)(h) = Ret(V804M)(h) (Homo sapiens, UniProt P07949, V804M)
EphA1(h) = target: T1, EphA1(h) (Homo sapiens, UniProt P21709)
T1 sequence (P21709 26-976): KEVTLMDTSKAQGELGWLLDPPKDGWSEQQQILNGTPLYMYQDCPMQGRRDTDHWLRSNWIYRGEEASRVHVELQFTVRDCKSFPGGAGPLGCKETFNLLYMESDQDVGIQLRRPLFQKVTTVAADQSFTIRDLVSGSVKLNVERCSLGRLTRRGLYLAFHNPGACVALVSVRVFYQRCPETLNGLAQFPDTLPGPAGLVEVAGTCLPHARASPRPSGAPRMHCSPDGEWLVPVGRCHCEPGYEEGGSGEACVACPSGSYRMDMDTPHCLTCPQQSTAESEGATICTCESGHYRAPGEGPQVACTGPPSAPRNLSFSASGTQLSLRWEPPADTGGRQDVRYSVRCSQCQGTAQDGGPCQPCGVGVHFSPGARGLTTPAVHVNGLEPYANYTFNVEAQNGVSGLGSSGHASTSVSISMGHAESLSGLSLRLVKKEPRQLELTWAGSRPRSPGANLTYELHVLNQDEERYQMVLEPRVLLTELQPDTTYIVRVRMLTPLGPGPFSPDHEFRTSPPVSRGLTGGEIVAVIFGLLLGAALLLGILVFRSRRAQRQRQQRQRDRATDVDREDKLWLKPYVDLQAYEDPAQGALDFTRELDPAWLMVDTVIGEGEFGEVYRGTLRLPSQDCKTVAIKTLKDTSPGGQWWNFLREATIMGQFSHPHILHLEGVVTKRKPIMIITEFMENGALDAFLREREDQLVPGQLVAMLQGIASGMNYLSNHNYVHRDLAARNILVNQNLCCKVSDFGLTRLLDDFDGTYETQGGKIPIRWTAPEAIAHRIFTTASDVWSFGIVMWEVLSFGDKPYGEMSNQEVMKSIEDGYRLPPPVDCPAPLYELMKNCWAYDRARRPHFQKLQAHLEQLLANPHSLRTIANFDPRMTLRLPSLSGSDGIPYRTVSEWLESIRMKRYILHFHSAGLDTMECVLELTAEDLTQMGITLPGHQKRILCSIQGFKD

MAPKAP-K2(h) = MAPKAP-K2(h) (Homo sapiens, UniProt P49137)
Chain of MAPKAP-K2(h) (P49137 whole entry): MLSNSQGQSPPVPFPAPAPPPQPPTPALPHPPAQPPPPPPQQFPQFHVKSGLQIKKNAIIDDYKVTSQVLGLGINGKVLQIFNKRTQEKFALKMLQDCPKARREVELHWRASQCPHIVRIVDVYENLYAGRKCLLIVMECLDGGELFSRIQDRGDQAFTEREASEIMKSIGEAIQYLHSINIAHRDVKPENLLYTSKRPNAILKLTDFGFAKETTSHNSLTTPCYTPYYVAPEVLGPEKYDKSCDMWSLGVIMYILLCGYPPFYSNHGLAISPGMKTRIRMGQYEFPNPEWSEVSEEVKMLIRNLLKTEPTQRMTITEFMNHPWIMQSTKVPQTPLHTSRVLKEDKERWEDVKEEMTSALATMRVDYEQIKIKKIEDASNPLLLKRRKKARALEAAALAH

PAK5(h) = PAK5(h) (Homo sapiens, UniProt Q9P286)
EGFR(L858R)(h) = EGFR(L858R)(h) (Homo sapiens, UniProt P00533, L858R)
Chain of EGFR(L858R)(h) (P00533 25-1210 L858R): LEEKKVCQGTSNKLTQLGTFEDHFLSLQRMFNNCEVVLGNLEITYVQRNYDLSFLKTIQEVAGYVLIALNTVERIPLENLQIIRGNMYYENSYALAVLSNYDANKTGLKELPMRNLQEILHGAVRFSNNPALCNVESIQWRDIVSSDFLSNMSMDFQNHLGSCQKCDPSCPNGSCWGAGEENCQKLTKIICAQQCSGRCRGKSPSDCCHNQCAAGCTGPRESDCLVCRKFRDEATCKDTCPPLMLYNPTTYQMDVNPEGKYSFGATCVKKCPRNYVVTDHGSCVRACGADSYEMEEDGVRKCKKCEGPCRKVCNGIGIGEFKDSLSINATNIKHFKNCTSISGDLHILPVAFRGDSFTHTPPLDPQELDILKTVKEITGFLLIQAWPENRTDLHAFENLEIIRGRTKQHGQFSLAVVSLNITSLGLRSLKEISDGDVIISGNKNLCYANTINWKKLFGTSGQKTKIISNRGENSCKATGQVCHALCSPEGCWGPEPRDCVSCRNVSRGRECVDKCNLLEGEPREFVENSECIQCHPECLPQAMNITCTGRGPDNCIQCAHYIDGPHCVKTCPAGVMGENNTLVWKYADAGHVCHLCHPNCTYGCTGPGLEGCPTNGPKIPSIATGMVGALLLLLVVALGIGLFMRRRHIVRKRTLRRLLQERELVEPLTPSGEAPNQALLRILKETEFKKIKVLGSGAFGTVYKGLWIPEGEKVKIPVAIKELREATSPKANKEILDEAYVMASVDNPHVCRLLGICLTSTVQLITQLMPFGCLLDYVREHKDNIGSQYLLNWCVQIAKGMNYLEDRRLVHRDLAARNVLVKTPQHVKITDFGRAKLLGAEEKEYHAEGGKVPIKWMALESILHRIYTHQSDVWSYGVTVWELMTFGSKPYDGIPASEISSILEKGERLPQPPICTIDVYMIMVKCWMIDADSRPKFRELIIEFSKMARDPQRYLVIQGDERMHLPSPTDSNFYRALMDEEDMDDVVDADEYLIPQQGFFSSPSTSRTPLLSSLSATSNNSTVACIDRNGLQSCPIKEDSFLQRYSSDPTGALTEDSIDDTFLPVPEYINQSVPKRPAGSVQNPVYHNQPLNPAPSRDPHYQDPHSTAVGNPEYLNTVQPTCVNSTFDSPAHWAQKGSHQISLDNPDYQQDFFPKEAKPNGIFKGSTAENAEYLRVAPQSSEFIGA

Chain of PKBβ(h) (P31751 whole entry): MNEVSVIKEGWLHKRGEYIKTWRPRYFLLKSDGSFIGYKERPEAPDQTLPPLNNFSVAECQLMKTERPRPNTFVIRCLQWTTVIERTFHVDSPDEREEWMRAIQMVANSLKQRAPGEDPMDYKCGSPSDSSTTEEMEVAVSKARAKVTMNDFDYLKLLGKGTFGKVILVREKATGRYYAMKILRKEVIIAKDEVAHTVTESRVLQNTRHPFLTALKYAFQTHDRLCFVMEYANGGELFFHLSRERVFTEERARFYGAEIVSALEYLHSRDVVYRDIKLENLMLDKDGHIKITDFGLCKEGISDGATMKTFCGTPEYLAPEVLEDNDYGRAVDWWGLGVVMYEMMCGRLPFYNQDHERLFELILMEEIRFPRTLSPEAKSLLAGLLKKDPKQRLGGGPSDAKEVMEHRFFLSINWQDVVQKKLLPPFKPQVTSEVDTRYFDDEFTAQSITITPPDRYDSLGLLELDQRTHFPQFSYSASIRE
Chain of HIPK2(h) (Q9H2X6 whole entry): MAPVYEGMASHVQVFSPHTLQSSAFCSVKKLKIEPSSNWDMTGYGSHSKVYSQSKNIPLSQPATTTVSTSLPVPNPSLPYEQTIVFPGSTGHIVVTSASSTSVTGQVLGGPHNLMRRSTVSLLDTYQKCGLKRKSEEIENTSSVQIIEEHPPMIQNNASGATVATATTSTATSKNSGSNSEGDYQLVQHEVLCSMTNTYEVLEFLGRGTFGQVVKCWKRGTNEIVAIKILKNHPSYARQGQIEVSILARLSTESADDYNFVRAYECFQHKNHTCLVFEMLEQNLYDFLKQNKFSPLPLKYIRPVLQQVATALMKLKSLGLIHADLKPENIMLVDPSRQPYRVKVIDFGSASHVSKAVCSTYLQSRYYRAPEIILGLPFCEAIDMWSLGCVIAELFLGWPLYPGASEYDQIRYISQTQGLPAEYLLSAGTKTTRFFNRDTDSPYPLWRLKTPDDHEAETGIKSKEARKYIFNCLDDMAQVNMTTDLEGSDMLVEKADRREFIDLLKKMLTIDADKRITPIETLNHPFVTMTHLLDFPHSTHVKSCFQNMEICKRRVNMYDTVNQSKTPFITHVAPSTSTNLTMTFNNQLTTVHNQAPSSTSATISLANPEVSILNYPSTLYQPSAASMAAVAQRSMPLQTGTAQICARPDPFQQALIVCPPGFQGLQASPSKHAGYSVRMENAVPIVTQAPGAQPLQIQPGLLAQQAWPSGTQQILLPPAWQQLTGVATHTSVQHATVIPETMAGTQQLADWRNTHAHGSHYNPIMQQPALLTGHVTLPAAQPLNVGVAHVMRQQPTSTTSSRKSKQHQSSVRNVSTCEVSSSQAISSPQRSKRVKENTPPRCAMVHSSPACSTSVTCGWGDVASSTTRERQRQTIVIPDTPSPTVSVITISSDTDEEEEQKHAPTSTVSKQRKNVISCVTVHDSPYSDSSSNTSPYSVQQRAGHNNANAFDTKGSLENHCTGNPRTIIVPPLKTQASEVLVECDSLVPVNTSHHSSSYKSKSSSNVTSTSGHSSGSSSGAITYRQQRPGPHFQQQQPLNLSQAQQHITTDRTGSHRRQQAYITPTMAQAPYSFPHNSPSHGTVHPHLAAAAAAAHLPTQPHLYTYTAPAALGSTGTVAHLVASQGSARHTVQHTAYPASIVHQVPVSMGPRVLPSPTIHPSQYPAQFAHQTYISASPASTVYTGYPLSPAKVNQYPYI

For CC(C)CCC(=O)[C@]1(O)C(O)=C(C(=O)C(C)C)C(=O)[C@H]1CCC(C)C [TH2, tetrahydroiso-cohumulone], the kinase inhibition (SRPK1(h); 1 μg/ml) was 47% of control, the kinase inhibition (SRPK1(h); 5 μg/ml) was 89% of control and the kinase inhibition (SRPK1(h); 25 μg/ml) was 61% of control. For the same compound, the kinase inhibition (SRPK1(h); 50 μg/ml) was 53% of control, the kinase inhibition (SRPK1(h); 100 μg/ml) was 45% of control and the kinase inhibition (PKBβ(h); 1 μg/ml) was 104% of control. For the same compound, the kinase inhibition (PKBβ(h); 5 μg/ml) was 97% of control, the kinase inhibition (PKBβ(h); 25 μg/ml) was 68% of control and the kinase inhibition (PKBβ(h); 50 μg/ml) was 43% of control. For the same compound, the kinase inhibition (PKBβ(h); 100 μg/ml) was 31% of control, the kinase inhibition (HIPK2(h); 1 μg/ml) was 120% of control and the kinase inhibition (HIPK2(h); 5 μg/ml) was 111% of control. For the same compound, the kinase inhibition (HIPK2(h); 25 μg/ml) was 115% of control, the kinase inhibition (HIPK2(h); 50 μg/ml) was 110% of control and the kinase inhibition (HIPK2(h); 100 μg/ml) was 97% of control. For the same compound, the kinase inhibition (PKA(h); 1 μg/ml) was 131% of control, the kinase inhibition (PKA(h); 5 μg/ml) was 124% of control and the kinase inhibition (PKA(h); 25 μg/ml) was 93% of control. The kinase inhibition (PKA(h); 50 μg/ml) was 94% of control, the kinase inhibition (PKA(h); 100 μg/ml) was 86% of control and the kinase inhibition (Pim-1(h); 1 μg/ml) was 86% of control. The kinase inhibition (Pim-1(h); 5 μg/ml) was 100% of control, the kinase inhibition (Pim-1(h); 25 μg/ml) was 87% of control and the kinase inhibition (Pim-1(h); 50 μg/ml) was 84% of control. For the same compound, the kinase inhibition (Pim-1(h); 100 μg/ml) was 55% of control, the kinase inhibition (EphA2(h); 1 μg/ml) was 102% of control and the kinase inhibition (EphA2(h); 5 μg/ml) was 104% of control. For the same compound, the kinase inhibition (EphA2(h); 25 μg/ml) was 105% of control, the kinase inhibition (EphA2(h); 50 μg/ml) was 99% of control and the kinase inhibition (EphA2(h); 100 μg/ml) was 92% of control. The kinase inhibition (Blk(m); 1 μg/ml) was 108% of control, the kinase inhibition (Blk(m); 5 μg/ml) was 115% of control and the kinase inhibition (Blk(m); 25 μg/ml) was 96% of control. The kinase inhibition (Blk(m); 50 μg/ml) was 72% of control, the kinase inhibition (Blk(m); 100 μg/ml) was 53% of control and the kinase inhibition (Ret(V804M)(h); 1 μg/ml) was 107% of control. For the same compound, the kinase inhibition (Ret(V804M)(h); 5 μg/ml) was 104% of control, the kinase inhibition (Ret(V804M)(h); 25 μg/ml) was 110% of control and the kinase inhibition (Ret(V804M)(h); 50 μg/ml) was 94% of control. For the same compound, the kinase inhibition (Ret(V804M)(h); 100 μg/ml) was 88% of control, the kinase inhibition (EphA1(h); 1 μg/ml) was 117% of control and the kinase inhibition (EphA1(h); 5 μg/ml) was 116% of control. For the same compound, the kinase inhibition (EphA1(h); 25 μg/ml) was 108% of control, the kinase inhibition (EphA1(h); 50 μg/ml) was 99% of control and the kinase inhibition (EphA1(h); 100 μg/ml) was 85% of control. The kinase inhibition (MAPKAP-K2(h); 1 μg/ml) was 116% of control, the kinase inhibition (MAPKAP-K2(h); 5 μg/ml) was 104% of control and the kinase inhibition (MAPKAP-K2(h); 25 μg/ml) was 104% of control. For the same compound, the kinase inhibition (MAPKAP-K2(h); 50 μg/ml) was 74% of control, the kinase inhibition (MAPKAP-K2(h); 100 μg/ml) was 73% of control and the kinase inhibition (PAK5(h); 1 μg/ml) was 106% of control. For the same compound, the kinase inhibition (PAK5(h); 5 μg/ml) was 105% of control, the kinase inhibition (PAK5(h); 25 μg/ml) was 91% of control and the kinase inhibition (PAK5(h); 50 μg/ml) was 93% of control. The kinase inhibition (PAK5(h); 100 μg/ml) was 61% of control, the kinase inhibition (EGFR(L858R)(h); 1 μg/ml) was 109% of control and the kinase inhibition (EGFR(L858R)(h); 5 μg/ml) was 117% of control. The kinase inhibition (EGFR(L858R)(h); 25 μg/ml) was 104% of control, the kinase inhibition (EGFR(L858R)(h); 50 μg/ml) was 90% of control and the kinase inhibition (EGFR(L858R)(h); 100 μg/ml) was 70% of control.
